Data published in the RepoRT retention time repository (doi:10.1016/j.jchromb.2020.122105).

Tests used:
Conditions in all cases: stereoisomer not certain
[1] = RP, Waters CORTECS T3, 100 × 2.1 mm, 2.7 µm, 0.15 mL/min, estimated dead time 1.5 min; A: water + 0.1% formic acid, pH 3; B: methanol + 0.1% formic acid, pH 3; gradient (min/%B) 0/0 1/0 6/5 30/100 35/100 35.1/0 40/0
[2] = HILIC, Thermo Scientific Accucore HILIC, 100 × 2.1 mm, 2.6 µm, 0.5 mL/min, estimated dead time 0.44 min; A: water + 0.1% formic acid + 10 mM ammonium formate, pH 3; B: 5% water + 95% acetonitrile + 0.1% formic acid + 10 mM ammonium formate, pH 3; gradient (min/%B) 0/95 5/95 20/57 25/57 30/95 40/95
[3] = RP, Waters CORTECS T3, 100 × 2.1 mm, 2.7 µm, 0.2 mL/min, estimated dead time 1.1 min; A: water + 0.1% formic acid, pH 3; B: methanol + 0.1% formic acid, pH 3; gradient (min/%B) 0/5 5/5 25/95 25.1/100 35/100 35.1/5 45/5
[4] = HILIC, Merck SeQuant ZIC-HILIC, 150 × 2.1 mm, 5 µm, 0.75 mL/min, estimated dead time 0.44 min; A: water + 10 mM ammonium formate, pH 6; B: 5% water + 95% acetonitrile + 10 mM ammonium formate, pH 6; gradient (min/%B) 0/95 5/95 20/57 25/57 30/95 40/95
[5] = RP, Waters CORTECS T3, 100 × 2.1 mm, 2.7 µm, 0.2 mL/min, estimated dead time 1.1 min; A: water + 0.1% formic acid, pH 3; B: methanol + 0.1% formic acid, pH 3; gradient (min/%B) 0/0 1/0 6/5 30/100 35/100 35.1/0 40/0
[6] = HILIC, Merck SeQuant ZIC-HILIC, 150 × 2.1 mm, 5 µm, 0.75 mL/min, estimated dead time 0.44 min; A: water + 0.1% acetic acid + 10 mM ammonium acetate, pH 4; B: 5% water + 95% acetonitrile + 0.1% acetic acid + 10 mM ammonium acetate, pH 4; gradient (min/%B) 0/95 5/95 20/57 25/57 30/95 40/95
[7] = RP, Waters ACQUITY UPLC BEH C18, 100 × 2.1 mm, 1.7 µm, 0.2 mL/min, estimated dead time 1.1 min; A: water + 0.1% formic acid, pH 3; B: methanol + 0.1% formic acid, pH 3; gradient (min/%B) 0/5 5/5 25/100 30/100 30.1/5 35/5
[8] = RP, Waters CORTECS T3, 100 × 2.1 mm, 2.7 µm, 0.2 mL/min, estimated dead time 1.1 min; A: water + 0.1% formic acid, pH 3; B: methanol + 0.1% formic acid, pH 3; gradient (min/%B) 0/0 1/0 6/5 30/100 35/100 35.1/0 40/0; remark: listed apart in the source
[9] = RP, Waters ACQUITY UPLC BEH C18, 100 × 2.1 mm, 1.7 µm, 0.1 mL/min, estimated dead time 2.2 min; A: water + 0.1% formic acid, pH 3; B: methanol + 0.1% formic acid, pH 3; gradient (min/%B) 0/5 5/5 25/100 30/100 30.1/5 35/5
[10] = HILIC, Waters XBridge BEH Amide, 100 × 2.1 mm, 2.5 µm, 0.5 mL/min, estimated dead time 0.44 min; A: water + 0.1% acetic acid + 10 mM ammonium acetate, pH 4; B: 5% water + 95% acetonitrile + 0.1% acetic acid + 10 mM ammonium acetate, pH 4; gradient (min/%B) 0/95 5/95 20/57 25/57 30/95 40/95
[11] = RP, Waters CORTECS T3, 100 × 2.1 mm, 2.7 µm, 0.3 mL/min, estimated dead time 0.73 min; A: water + 0.1% formic acid, pH 3; B: methanol + 0.1% formic acid, pH 3; gradient (min/%B) 0/0 5/0 25/100 30/100 30.1/0 35/0
[12] = as above; remark: listed apart in the source
[13] = RP, Waters ACQUITY UPLC BEH C18, 100 × 2.1 mm, 1.7 µm, 0.2 mL/min, estimated dead time 1.1 min; A: water + 0.025% formic acid + 20 mM ammonium acetate + 0.055% ammonium hydroxide, pH 7; B: methanol; gradient (min/%B) 0/5 5/5 25/100 30/100 30.1/5 35/5
[14] = RP, Thermo Scientific Hypercarb, 150 × 2.1 mm, 5 µm, 0.1 mL/min, estimated dead time 3.3 min; A: water + 0.1% formic acid, pH 3; B: methanol + 0.1% formic acid, pH 3; gradient (min/%B) 0/5 5/5 20/100 35/100 35.1/5 45/5
[15] = RP, Waters CORTECS T3, 100 × 2.1 mm, 2.7 µm, 0.25 mL/min, estimated dead time 0.88 min; A: water + 0.1% formic acid, pH 3; B: methanol + 0.1% formic acid, pH 3; gradient (min/%B) 0/0 1/0 6/5 30/100 35/100 35.1/0 40/0
[16] = RP, Waters ACQUITY UPLC BEH C18, 100 × 2.1 mm, 1.7 µm, 0.2 mL/min, estimated dead time 1.1 min; A: water + 0.025% formic acid + 20 mM ammonium acetate + 0.055% ammonium hydroxide, pH 7; B: methanol; gradient (min/%B) 0/5 5/5 25/100 30/100 30.1/5 35/5; remark: listed apart in the source
[17] = RP, Waters CORTECS T3, 100 × 2.1 mm, 2.7 µm, 0.25 mL/min, estimated dead time 0.88 min; A: water + 0.1% formic acid, pH 3; B: methanol + 0.1% formic acid, pH 3; gradient (min/%B) 0/5 5/5 25/95 25.1/100 35/100 35.1/5 45/5
[18] = RP, Waters CORTECS T3, 100 × 2.1 mm, 2.7 µm, 0.3 mL/min, estimated dead time 0.73 min; A: water + 0.1% formic acid, pH 3; B: methanol + 0.1% formic acid, pH 3; gradient (min/%B) 0/0 1/0 6/5 30/100 35/100 35.1/0 40/0
[19] = RP, Waters ACQUITY UPLC BEH C18, 100 × 2.1 mm, 1.7 µm, 0.1 mL/min, estimated dead time 2.2 min; A: water + 0.045% formic acid + 0.11% ammonium hydroxide, pH 7; B: methanol; gradient (min/%B) 0/5 5/5 25/95 25.1/100 35/100 35.1/5 45/5
[20] = RP, Waters ACQUITY UPLC BEH C18, 100 × 2.1 mm, 1.7 µm, 0.1 mL/min, estimated dead time 2.2 min; A: water + 0.1% formic acid, pH 3; B: methanol + 0.1% formic acid, pH 3; gradient (min/%B) 0/5 5/5 25/95 25.1/100 35/100 35.1/5 45/5
[21] = RP, Waters CORTECS T3, 100 × 2.1 mm, 2.7 µm, 0.3 mL/min, estimated dead time 0.73 min; A: water + 0.1% formic acid, pH 3; B: methanol + 0.1% formic acid, pH 3; gradient (min/%B) 0/0 1/0 6/5 30/100 35/100 35.1/0 40/0; remark: listed apart in the source
[22] = RP, Waters CORTECS T3, 100 × 2.1 mm, 2.7 µm, 0.1 mL/min, estimated dead time 2.2 min; A: water + 0.1% formic acid, pH 3; B: methanol + 0.1% formic acid, pH 3; gradient (min/%B) 0/5 5/5 25/95 25.1/100 35/100 35.1/5 45/5
[23] = RP, Waters ACQUITY UPLC BEH C18, 100 × 2.1 mm, 1.7 µm, 0.1 mL/min, estimated dead time 2.2 min; A: water + 0.1% formic acid, pH 3; B: methanol + 0.1% formic acid, pH 3; gradient (min/%B) 0/5 5/5 25/95 25.1/100 35/100 35.1/5 45/5; remark: listed apart in the source
[24] = RP, Waters CORTECS T3, 100 × 2.1 mm, 2.7 µm, 0.3 mL/min, estimated dead time 0.73 min; A: water + 0.1% formic acid, pH 3; B: methanol + 0.1% formic acid, pH 3; gradient (min/%B) 0/5 5/5 25/100 30/100 30.1/5 35/5
[25] = RP, Waters CORTECS T3, 100 × 2.1 mm, 2.7 µm, 0.3 mL/min, estimated dead time 0.73 min; A: water + 0.1% formic acid, pH 3; B: methanol + 0.1% formic acid, pH 3; gradient (min/%B) 0/5 5/5 25/95 25.1/100 35/100 35.1/5 45/5
[26] = RP, Waters ACQUITY UPLC BEH C18, 100 × 2.1 mm, 1.7 µm, 0.1 mL/min, estimated dead time 2.2 min; A: water + 0.1% formic acid, pH 3; B: methanol + 0.1% formic acid, pH 3; gradient (min/%B) 0/5 5/5 25/95 25.1/100 35/100 35.1/5 45/5; remark: listed apart in the source
[27] = RP, Waters CORTECS T3, 100 × 2.1 mm, 2.7 µm, 0.15 mL/min, estimated dead time 1.5 min; A: water + 0.1% formic acid, pH 3; B: methanol + 0.1% formic acid, pH 3; gradient (min/%B) 0/5 5/5 25/95 25.1/100 35/100 35.1/5 45/5
[28] = RP, Waters CORTECS T3, 100 × 2.1 mm, 2.7 µm, 0.1 mL/min, estimated dead time 2.2 min; A: water + 0.1% formic acid, pH 3; B: methanol + 0.1% formic acid, pH 3; gradient (min/%B) 0/0 1/0 6/5 30/100 35/100 35.1/0 40/0

Row | Structure (SMILES) | LC retention time [1] | LC retention time [2] | LC retention time [3] | LC retention time [4] | LC retention time [6] | LC retention time [7] | LC retention time [9] | LC retention time [10] | LC retention time [11] | LC retention time [12] | LC retention time [14] | LC retention time [15] | LC retention time [16] | LC retention time [17] | also measured
1 | CC(=O)NC(CCCCN)C(=O)O [N-ALPHA-ACETYL-L-LYSINE] | 1.78 min | 13 min | 2.64 min | 13.6 min | 13.4 min | 1.34 min | 2.69 min | 13.2 min | 0.89 min | 0.89 min | 4.9 min | 1.09 min |  |  | LC retention time [5]: 1.35 min; LC retention time [8]: 1.34 min; LC retention time [13]: 1.37 min
2 | CC(CCC(=O)NCC(=O)O)C1CCC2C3C(O)CC4CC(O)CCC4(C)C3CC(O)C12C (configuration not stated) [GLYCOCHOLATE] |  | 9.61 min |  |  |  | 21.8 min |  |  |  |  |  |  | 19.5 min | 21.7 min | 
3 | N[C@@H](Cc1cnc[nH]1)C(=O)O [L-HISTIDINE] |  | 14.9 min | 2.39 min |  |  |  |  |  |  |  | 4.72 min |  |  |  | 
4 | NC(C=O)C(O)C(O)C(O)COS(=O)(=O)O [D-GLUCOSAMINE 6-SULFATE] |  | 11.8 min |  | 15 min | 15.2 min |  |  | 13.1 min |  |  |  |  |  |  | 
5 | CC(O)(CC(=O)O)CC(=O)O [3-HYDROXY-3-METHYLGLUTARATE] |  | 11.2 min |  | 12.8 min | 12.2 min |  |  | 12.1 min |  |  |  |  |  |  | 
6 | CCCCCCCCCCCC(=O)O [LAURIC ACID] |  | 9.23 min |  |  |  |  |  |  |  |  |  |  |  |  | 
7 | NCCC(=O)NC(Cc1cnc[nH]1)C(=O)O (configuration not stated) [CARNOSINE] |  | 15.4 min | 2.43 min | 15.9 min | 16.3 min |  |  | 15 min |  |  | 4.86 min |  | 1.36 min |  | 
8 | Nc1ncnc2nc[nH]c12 [ADENINE] | 1.8 min | 2.08 min | 2.67 min | 2.16 min |  | 1.36 min | 2.71 min | 2.99 min | 0.91 min | 0.91 min |  | 1.06 min | 1.89 min | 1.06 min | LC retention time [18]: 0.9 min; LC retention time [19]: 2.75 min; LC retention time [20]: 2.65 min; LC retention time [21]: 0.9 min; LC retention time [13]: 3.46 min
9 | CCCCCCSCC(NC(=O)CCC(N)C(=O)O)C(=O)NCC(=O)O (configuration not stated) [S-HEXYL-GLUTATHIONE] | 20.8 min |  | 22.9 min |  |  | 17.5 min | 20.6 min |  | 16.2 min | 16.2 min |  | 18.7 min | 12.8 min | 16.6 min | LC retention time [22]: 20.5 min; LC retention time [18]: 18.1 min; LC retention time [19]: 19.8 min; LC retention time [5]: 19.5 min; LC retention time [20]: 21.1 min; LC retention time [21]: 18.1 min; LC retention time [8]: 19.5 min; LC retention time [23]: 21.2 min; LC retention time [24]: 15.6 min; LC retention time [25]: 16 min; LC retention time [26]: 21.2 min; LC retention time [27]: 18.5 min; LC retention time [28]: 17.4 min
